From ChEMBL document CHEMBL1155854, “Conformationally constrained farnesoid X receptor (FXR) agonists: Naphthoic acid-based analogs of GW 4064” (Bioorg Med Chem Lett, 2008)
The source made the active and inactive calls. The calls are words filed in the database; no cut-off is given here.

Assays:
[1] = Selectivity for FXR over PXR
[2] = tested on: Rattus norvegicus; experiment: Reduction of serum direct bilirubin level in alpha-naphthyl-isothiocyanate-induced rat acute cholestasis model at 100 to 300 mg/kg, po bid for 4 days dosed before 2 days induction by alpha-naphthyl-isothiocyanate; format: functional, organism-based
[3] = Half life in iv dosed rat; format: ADME, organism-based; conditions: in vivo
[4] = Oral bioavailability in rat at 30 mg/kg; format: ADME, organism-based; conditions: in vivo
[5] = Oral bioavailability in Beagle dog at 5 mg/kg; format: ADME, organism-based, Canis lupus familiaris; conditions: in vivo
[6] = target: T1, Oxysterols receptor LXR-alpha (Homo sapiens, UniProt Q13133); experiment: Agonist activity at LXRalpha assessed as receptor-coactivator peptide interaction by FRET assay; format: functional
T1 sequence (Q13133 whole entry): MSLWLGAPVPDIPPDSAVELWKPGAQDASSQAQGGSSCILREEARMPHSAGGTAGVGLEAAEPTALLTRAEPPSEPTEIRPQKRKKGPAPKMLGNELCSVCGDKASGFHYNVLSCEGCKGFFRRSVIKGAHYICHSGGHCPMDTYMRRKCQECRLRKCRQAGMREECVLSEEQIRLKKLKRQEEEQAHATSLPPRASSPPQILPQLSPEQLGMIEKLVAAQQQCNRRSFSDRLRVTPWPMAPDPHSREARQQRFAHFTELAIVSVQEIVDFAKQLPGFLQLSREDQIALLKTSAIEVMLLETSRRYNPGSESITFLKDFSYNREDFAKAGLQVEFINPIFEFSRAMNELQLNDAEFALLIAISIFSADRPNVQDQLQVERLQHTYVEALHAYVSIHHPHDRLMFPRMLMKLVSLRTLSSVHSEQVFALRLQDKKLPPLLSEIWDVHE

[7] = target: T2, Bile acid receptor (Homo sapiens) (UniProt Q96RI1); experiment: Agonist activity at FXR expressed in african green monkey CV1 cells by luciferase reporter transient transfection assay relative to GW-4064; format: functional, cell-based; conditions: CV-1
T2 sequence (whole entry): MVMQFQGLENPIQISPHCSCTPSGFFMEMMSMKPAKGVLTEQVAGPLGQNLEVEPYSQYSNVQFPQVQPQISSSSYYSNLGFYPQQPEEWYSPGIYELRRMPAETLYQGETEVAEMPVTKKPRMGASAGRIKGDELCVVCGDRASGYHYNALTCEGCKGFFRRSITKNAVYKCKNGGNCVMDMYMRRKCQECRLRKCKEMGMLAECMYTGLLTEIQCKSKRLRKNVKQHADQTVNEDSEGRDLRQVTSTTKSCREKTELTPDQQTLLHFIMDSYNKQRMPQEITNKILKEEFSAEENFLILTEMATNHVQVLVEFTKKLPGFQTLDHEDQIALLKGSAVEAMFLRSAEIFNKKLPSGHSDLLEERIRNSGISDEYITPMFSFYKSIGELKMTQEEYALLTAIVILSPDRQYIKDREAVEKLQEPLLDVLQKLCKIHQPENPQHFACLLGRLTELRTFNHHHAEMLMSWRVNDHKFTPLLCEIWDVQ

[8] = target: T2, Bile acid receptor (Homo sapiens); experiment: Agonist activity at FXR assessed as receptor-SRC-1 peptide interaction by FRET assay relative to GW-4064; format: functional
[9] = target: T3, Oxysterols receptor LXR-beta (Homo sapiens, UniProt P55055); experiment: Agonist activity at LXRbeta by transient transfection assay; format: functional
T3 sequence (P55055 whole entry): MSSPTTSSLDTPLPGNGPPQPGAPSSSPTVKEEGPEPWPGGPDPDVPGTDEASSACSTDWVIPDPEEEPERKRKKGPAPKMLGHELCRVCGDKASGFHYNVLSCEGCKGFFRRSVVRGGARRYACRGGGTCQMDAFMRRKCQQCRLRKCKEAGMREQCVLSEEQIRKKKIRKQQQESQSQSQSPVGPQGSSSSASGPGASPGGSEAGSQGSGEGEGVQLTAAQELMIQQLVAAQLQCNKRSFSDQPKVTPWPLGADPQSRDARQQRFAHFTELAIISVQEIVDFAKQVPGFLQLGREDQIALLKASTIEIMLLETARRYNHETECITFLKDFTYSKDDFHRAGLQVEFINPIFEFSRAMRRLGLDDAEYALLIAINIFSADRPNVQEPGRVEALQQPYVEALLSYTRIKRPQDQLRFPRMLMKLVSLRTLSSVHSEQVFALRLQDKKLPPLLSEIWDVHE

[10] = tested on: Rattus norvegicus; experiment: Reduction of serum gamma-glutamyl transferase level in alpha-naphthyl-isothiocyanate-induced rat acute cholestasis model at 100 to 300 mg/kg, po bid for 4 days dosed before 2 days induction by alpha-naphthyl-isothiocyanate; format: functional, organism-based
[11] = target: T4, Cytochrome P450 1A2 (Homo sapiens, UniProt P05177); experiment: Inhibition of CYP1A2 in pooled human liver microsome; format: ADME, microsomes
T4 sequence (P05177 whole entry): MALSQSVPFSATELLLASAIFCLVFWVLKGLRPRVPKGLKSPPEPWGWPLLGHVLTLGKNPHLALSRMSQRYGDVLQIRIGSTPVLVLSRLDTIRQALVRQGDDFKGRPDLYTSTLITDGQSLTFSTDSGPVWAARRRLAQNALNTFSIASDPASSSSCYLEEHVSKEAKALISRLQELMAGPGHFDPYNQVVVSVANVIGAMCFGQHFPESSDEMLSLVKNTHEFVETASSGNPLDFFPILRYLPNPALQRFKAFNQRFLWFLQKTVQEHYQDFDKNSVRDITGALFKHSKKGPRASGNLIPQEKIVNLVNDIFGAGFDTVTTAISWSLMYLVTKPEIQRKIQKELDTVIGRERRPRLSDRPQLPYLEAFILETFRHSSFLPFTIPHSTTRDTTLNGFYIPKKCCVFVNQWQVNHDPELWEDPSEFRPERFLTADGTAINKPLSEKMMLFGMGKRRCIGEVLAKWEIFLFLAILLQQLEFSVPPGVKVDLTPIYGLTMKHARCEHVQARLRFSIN

[12] = target: T5, PXR (Homo sapiens, UniProt O75469); experiment: Agonist activity at PXR by SPA assay; format: functional
T5 sequence (O75469 whole entry): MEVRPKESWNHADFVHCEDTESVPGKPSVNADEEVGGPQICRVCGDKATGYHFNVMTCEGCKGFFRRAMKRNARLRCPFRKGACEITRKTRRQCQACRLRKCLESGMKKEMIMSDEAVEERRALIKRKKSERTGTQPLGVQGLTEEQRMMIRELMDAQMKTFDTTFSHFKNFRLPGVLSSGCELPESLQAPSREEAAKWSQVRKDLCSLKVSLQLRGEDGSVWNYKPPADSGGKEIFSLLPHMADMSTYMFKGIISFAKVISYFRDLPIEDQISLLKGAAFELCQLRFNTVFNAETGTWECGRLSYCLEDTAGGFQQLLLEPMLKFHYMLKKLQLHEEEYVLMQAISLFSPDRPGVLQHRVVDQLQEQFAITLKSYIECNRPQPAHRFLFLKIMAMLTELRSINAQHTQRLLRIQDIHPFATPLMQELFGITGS

[13] = Apparent permeability in MDCK cells; format: ADME, cell-based, Canis lupus familiaris; conditions: dog
[14] = Solubility in simulated gastric fluid at pH 1; format: physicochemical; conditions: simulated gi fluid
[15] = tested on: Rattus norvegicus; experiment: Reduction of serum alkaline phosphatase level in alpha-naphthyl-isothiocyanate-induced rat acute cholestasis model at 100 to 300 mg/kg, po bid for 4 days dosed before 2 days induction by alpha-naphthyl-isothiocyanate; format: functional, organism-based

CC(C)c1onc(-c2c(Cl)cccc2Cl)c1COc1ccc(-c2ccc3c(C(=O)O)cccc3c2)cc1
Selectivity ratio [1]: 35
Activity [2]: Active
half-life [3]: 24 min
bioavailability [4]: 7.7%
bioavailability [5]: 56%
XC50 [6]: > 20 µM
%max [7]: 104%
%max [8]: 134%
XC50 [9]: > 20 µM
Activity [10]: Active
IC50 [11]: 23 µM
XC50 [12]: 3.1 µM
Papp [13]: 19 ×10⁻⁶ cm/s
solubility [14]: < 1 ng/mL
Activity [15]: Active
